In the supplement of paper PMC10627819:

Legend:
Assay in all cases: Bliss interaction score (quartile over a dose matrix) (fitness difference); higher = more antagonism (negative = synergy)
S. pneumoniae D39V = test system: S. pneumoniae D39V
Outline: (§1)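 Fitness was derived from optical density at entry into stationary phase, divided by the robust mean of the no-drug wells on the same plate. That reading was taken as OD595, and the ratio was capped at 1. Single-drug fitness was inferred from the combination data. The Bliss score, observed fitness minus the expected product of single-drug fitness, was summarised as quartiles over technical, biological and donor/recipient replicates.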

S. aureus Newman = test system: S. aureus Newman
Outline: as §1

S. aureus DSM 20231 = test system: S. aureus DSM 20231
Outline: as §1

B. subtilis 168 = test system: B. subtilis 168
Outline: as §1
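Also: first quartile when negative (synergy) and third quartile when positive (antagonism).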

| SMILES | Bliss interaction score (S. pneumoniae D39V) | Bliss interaction score (S. aureus Newman) | Bliss interaction score (S. aureus DSM 20231) | Bliss interaction score (B. subtilis 168) |
| --- | --- | --- | --- | --- |
| N[C@@H]1CONC1=O [CycloserineD] + CC[C@H]1OC(=O)[C@H](C)C(=O)[C@H](C)[C@@H](O[C@@H]2O[C@H](C)C[C@H](N(C)C)[C@H]2O)[C@](C)(OC)C[C@@H](C)C(=O)[C@H](C)[C@H]2N(CCCCn3cnc(-c4cccnc4)c3)C(=O)O[C@]12C [Telithromycin] | 0.0906 | 0.0514 | 0.116 | 0.0974 |
| N[C@@H]1CONC1=O [CycloserineD] + CC[C@H]1OC(=O)[C@H](C)[C@@H](O[C@H]2C[C@@](C)(OC)[C@@H](O)[C@H](C)O2)[C@H](C)[C@@H](O[C@@H]2O[C@H](C)C[C@H](N(C)C)[C@H]2O)[C@](C)(O)C[C@@H](C)C(=O)[C@H](C)[C@@H](O)[C@]1(C)O [Erythromycin] | 0.0918 | -0.0485 | -0.043 | 0.077 |
| N[C@@H]1CONC1=O [CycloserineD] + CN1C2=CC=CC=C2N=C3C1=CC=CC3=O [Pyocyanin] | 0.201 | -0.0546 | 0.0676 | -0.0572 |
| N[C@@H]1CONC1=O [CycloserineD] + CN(C)C(=O)C(CCN1CCC(O)(c2ccc(Cl)cc2)CC1)(c1ccccc1)c1ccccc1 [Loperamide] | 0.289 | 0.0674 | 0.0915 | -0.209 |
| N[C@@H]1CONC1=O [CycloserineD] + CN(C)c1cc(NC(=O)CNC(C)(C)C)c(O)c2c1C[C@H]1C[C@H]3[C@H](N(C)C)C(O)=C(C(N)=O)C(=O)[C@@]3(O)C(O)=C1C2=O [Tigecycline] | -0.0514 | 0.0356 | 0.0966 | -0.0502 |
| N[C@@H]1CONC1=O [CycloserineD] + CN(N=O)C(=O)N[C@@H](C=O)[C@@H](O)[C@H](O)[C@H](O)CO [Streptozotocin] | -0.16 | -0.0611 | -0.14 | 0.0463 |
| N[C@@H]1CONC1=O [CycloserineD] + CN[C@@H]1[C@H](O)[C@H](NC)[C@H]2O[C@@]3(O)C(=O)C[C@@H](C)O[C@H]3O[C@@H]2[C@H]1O [Spectinomycin] | 0.11 | 0.0506 | 0.0625 | -0.034 |
| N[C@@H]1CONC1=O [CycloserineD] + CN[C@@H]1[C@H](O[C@H]2[C@H](O[C@H]3[C@H](O)[C@@H](O)[C@H](N=C(N)N)[C@@H](O)[C@@H]3N=C(N)N)O[C@@H](C)[C@]2(O)C=O)O[C@@H](CO)[C@H](O)[C@H]1O [Streptomycin] | -0.108 | 0.0653 | -0.136 | -0.0511 |
| N[C@@H]1CONC1=O [CycloserineD] + CN[C@H](CC(C)C)C(=O)N[C@H]1C(=O)N[C@@H](CC(N)=O)C(=O)N[C@H]2C(=O)N[C@H]3C(=O)N[C@H](C(=O)N[C@H](C(=O)O)c4cc(O)cc(O)c4-c4cc3ccc4O)[C@H](O)c3ccc(c(Cl)c3)Oc3cc2cc(c3O[C@@H]2O[C@H](CO)[C@@H](O)[C@H](O)[C@H]2O[C@H]2C[C@](C)(N)[C@H](O)[C@H](C)O2)Oc2ccc(cc2Cl)[C@H]1O [Vancomycin] | -0.069 | 0.0656 | 0.0736 | -0.113 |
| N[C@@H]1CONC1=O [CycloserineD] + CN[C@H](CC(C)C)C(=O)N[C@H]1C(=O)N[C@@H](CC(N)=O)C(=O)N[C@H]2C(=O)N[C@H]3C(=O)N[C@H](C(=O)N[C@H](C(=O)O)c4cc(O)cc(O)c4-c4cc3ccc4O)[C@H](O[C@H]3C[C@](C)(N)[C@@H](O)[C@H](C)O3)c3ccc(c(Cl)c3)Oc3cc2cc(c3O[C@@H]2O[C@H](CO)[C@@H](O)[C@H](O)[C@H]2O[C@H]2C[C@](C)(NCc3ccc(-c4ccc(Cl)cc4)cc3)[C@@H](O)[C@H](C)O2)Oc2ccc(cc2Cl)[C@H]1O [Oritavancin] | 0.0458 | 0.0585 | -0.0757 | 0.0352 |
| N[C@@H]1CONC1=O [CycloserineD] + CO[C@@H]1[C@@H](OC(N)=O)[C@@H](O)[C@H](Oc2ccc3c(O)c(NC(=O)c4ccc(O)c(CC=C(C)C)c4)c(=O)oc3c2C)OC1(C)C [Novobiocin] | 0.187 | 0.0912 | 0.0888 | 0.0651 |
| N[C@@H]1CONC1=O [CycloserineD] + CO[C@@]12[C@H](COC(N)=O)C3=C(C(=O)C(C)=C(N)C3=O)N1C[C@@H]1N[C@@H]12 [MitomycinC] | 0.108 | -0.0532 | -0.0633 | 0.0912 |
| N[C@@H]1CONC1=O [CycloserineD] + CO[C@H]1/C=C/O[C@@]2(C)Oc3c(C)c(O)c4c(O)c(c(/C=N/N5CCN(C)CC5)c(O)c4c3C2=O)NC(=O)/C(C)=C\C=C\[C@H](C)[C@H](O)[C@@H](C)[C@@H](O)[C@@H](C)[C@H](OC(C)=O)[C@@H]1C [Rifampicin] | 0.163 | 0.0463 | -0.0935 | 0.0563 |
| N[C@@H]1CONC1=O [CycloserineD] + COc1c(N2C[C@@H]3CCCN[C@@H]3C2)c(F)cc2c(=O)c(C(=O)O)cn(C3CC3)c12 [Moxifloxacin] | 0.0969 | -0.0769 | -0.0873 | -0.0252 |
| N[C@@H]1CONC1=O [CycloserineD] + COc1cc(Cc2cnc(N)nc2N)cc(OC)c1OC [Trimethoprim] | 0.0932 | -0.067 | -0.0585 | 0.0782 |
| N[C@@H]1CONC1=O [CycloserineD] + COc1ccc(C[C@H](N)C(=O)N[C@H]2[C@@H](O)[C@H](n3cnc4c(N(C)C)ncnc43)O[C@@H]2CO)cc1 [Puromycin] | 0.142 | 0.051 | 0.0925 | 0.0439 |
| N[C@@H]1CONC1=O [CycloserineD] + COc1cccc2c1C(=O)c1c(O)c3c(c(O)c1C2=O)C[C@@](O)(C(=O)CO)C[C@@H]3O[C@H]1C[C@H](N)[C@H](O)[C@H](C)O1 [Doxorubicin] | 0.0698 | -0.0446 | 0.0418 | 0.0778 |
| N[C@@H]1CONC1=O [CycloserineD] + C[C@@H]1O[C@@H]1P(=O)(O)O [Fosfomycin] | 0.0808 | -0.033 | -0.0611 | -0.046 |
| N[C@@H]1CONC1=O [CycloserineD] + C[C@@H](O)[C@H]1C(=O)N2C(C(=O)O)=C(SCCNC=N)C[C@H]12 [Imipenem] | -0.235 | -0.0358 | 0.0715 | 0.0545 |

| SMILES | Bliss interaction score (S. pneumoniae D39V) | Bliss interaction score (S. aureus Newman) | Bliss interaction score (S. aureus DSM 20231) | Bliss interaction score (B. subtilis 168) |
| --- | --- | --- | --- | --- |
| N[C@@H]1CONC1=O [CycloserineD] + C[C@H]1COc2c(N3CCN(C)CC3)c(F)cc3c(=O)c(C(=O)O)cn1c23 [Levofloxacin] | 0.0882 | -0.131 | -0.12 | 0.0199 |
| N[C@@H]1CONC1=O [CycloserineD] + C[C@H]1c2cccc(O)c2C(=O)C2=C(O)[C@]3(O)C(=O)C(C(N)=O)=C(O)[C@@H](N(C)C)[C@@H]3[C@@H](O)[C@@H]21 [Doxycycline] | 0.243 | -0.0254 | -0.116 | 0.0526 |
| N[C@@H]1CONC1=O [CycloserineD] + C[n+]1ccc(-c2cc[n+](C)cc2)cc1 [Paraquat] | -0.101 | 0.0488 | 0.0783 | -0.036 |
| N[C@@H]1CONC1=O [CycloserineD] + Cc1cc(NS(=O)(=O)c2ccc(N)cc2)no1 [Sulfamethoxazol] | -0.188 | 0.0449 | 0.0715 | -0.0418 |
| N[C@@H]1CONC1=O [CycloserineD] + Cc1ncc([N+](=O)[O-])n1CCO [Metronidazole] | -0.0766 | 0.0557 | 0.0317 | -0.0606 |
| N[C@@H]1CONC1=O [CycloserineD] + Cc1onc(-c2ccccc2)c1C(=O)N[C@@H]1C(=O)N2[C@@H]1SC(C)(C)[C@@H]2C(=O)O [Oxacillin] | -0.17 | -0.0567 | 0.0729 | 0.0509 |
| N[C@@H]1CONC1=O [CycloserineD] + Clc1ccc(COC(Cn2ccnc2)c2ccc(Cl)cc2Cl)c(Cl)c1 [Miconazole] | -0.0729 | -0.0328 | 0.0763 | 0.0883 |
| N[C@@H]1CONC1=O [CycloserineD] + Cn1nnc(-c2ccc(-c3ccc(N4C[C@H](CO)OC4=O)cc3F)cn2)n1 [Tedizolid] | 0.126 | 0.0593 | -0.101 | 0.0364 |
| N[C@@H]1CONC1=O [CycloserineD] + O=C1CN(/N=C/c2ccc([N+](=O)[O-])o2)C(=O)N1 [Nitrofurantoin] | 0.197 | -0.0425 | 0.0785 | 0.173 |
| N[C@@H]1CONC1=O [CycloserineD] + O=C(O[C@@H]1Cc2c(O)cc(O)cc2O[C@@H]1c1cc(O)c(O)c(O)c1)c1cc(O)c(O)c(O)c1 [EGCG] | -0.0875 | 0.0286 | -0.107 | -0.114 |
| N[C@@H]1CONC1=O [CycloserineD] + Oc1cc(Cl)ccc1Oc1ccc(Cl)cc1Cl [Triclosan] | -0.11 | 0.0356 | 0.0965 | 0.0246 |
| O=C(O[C@@H]1Cc2c(O)cc(O)cc2O[C@@H]1c1cc(O)c(O)c(O)c1)c1cc(O)c(O)c(O)c1 [EGCG] + CC1(C)S[C@@H]2[C@H](NC(=O)Cc3ccccc3)C(=O)N2[C@H]1C(=O)O [PenicillinG] | 0.108 | 0.0531 | 0.059 | 0.0517 |
| O=C(O[C@@H]1Cc2c(O)cc(O)cc2O[C@@H]1c1cc(O)c(O)c(O)c1)c1cc(O)c(O)c(O)c1 [EGCG] + CC(=O)O[C@H]1C[C@@]2(C)[C@@H](C[C@@H](O)[C@H]3[C@@]4(C)CC[C@@H](O)[C@@H](C)[C@@H]4CC[C@@]32C)/C1=C(\CCC=C(C)C)C(=O)O [Fusidic acid] | -0.143 | -0.0283 | -0.019 | 0.0767 |
| O=C(O[C@@H]1Cc2c(O)cc(O)cc2O[C@@H]1c1cc(O)c(O)c(O)c1)c1cc(O)c(O)c(O)c1 [EGCG] + CC[C@H]1OC(=O)[C@H](C)C(=O)[C@H](C)[C@@H](O[C@@H]2O[C@H](C)C[C@H](N(C)C)[C@H]2O)[C@](C)(OC)C[C@@H](C)C(=O)[C@H](C)[C@H]2N(CCCCn3cnc(-c4cccnc4)c3)C(=O)O[C@]12C [Telithromycin] | 0.0892 | 0.0859 | -0.079 | 0.0403 |
| O=C(O[C@@H]1Cc2c(O)cc(O)cc2O[C@@H]1c1cc(O)c(O)c(O)c1)c1cc(O)c(O)c(O)c1 [EGCG] + CC[C@H]1OC(=O)[C@H](C)[C@@H](O[C@H]2C[C@@](C)(OC)[C@@H](O)[C@H](C)O2)[C@H](C)[C@@H](O[C@@H]2O[C@H](C)C[C@H](N(C)C)[C@H]2O)[C@](C)(O)C[C@@H](C)C(=O)[C@H](C)[C@@H](O)[C@]1(C)O [Erythromycin] | 0.0597 | -0.0582 | -0.0558 | 0.0527 |
| O=C(O[C@@H]1Cc2c(O)cc(O)cc2O[C@@H]1c1cc(O)c(O)c(O)c1)c1cc(O)c(O)c(O)c1 [EGCG] + CN[C@H](CC(C)C)C(=O)N[C@H]1C(=O)N[C@@H](CC(N)=O)C(=O)N[C@H]2C(=O)N[C@H]3C(=O)N[C@H](C(=O)N[C@H](C(=O)O)c4cc(O)cc(O)c4-c4cc3ccc4O)[C@H](O[C@H]3C[C@](C)(N)[C@@H](O)[C@H](C)O3)c3ccc(c(Cl)c3)Oc3cc2cc(c3O[C@@H]2O[C@H](CO)[C@@H](O)[C@H](O)[C@H]2O[C@H]2C[C@](C)(NCc3ccc(-c4ccc(Cl)cc4)cc3)[C@@H](O)[C@H](C)O2)Oc2ccc(cc2Cl)[C@H]1O [Oritavancin] | 0.0545 | 0.318 | 0.176 | 0.0249 |
| O=C(O[C@@H]1Cc2c(O)cc(O)cc2O[C@@H]1c1cc(O)c(O)c(O)c1)c1cc(O)c(O)c(O)c1 [EGCG] + CO[C@@]12[C@H](COC(N)=O)C3=C(C(=O)C(C)=C(N)C3=O)N1C[C@@H]1N[C@@H]12 [MitomycinC] | 0.0987 | 0.051 | -0.0345 | -0.0639 |
| O=C(O[C@@H]1Cc2c(O)cc(O)cc2O[C@@H]1c1cc(O)c(O)c(O)c1)c1cc(O)c(O)c(O)c1 [EGCG] + Oc1cc(Cl)ccc1Oc1ccc(Cl)cc1Cl [Triclosan] | -0.0791 | 0.0222 | 0.0962 | -0.0336 |
| CC(=O)O[C@H]1C[C@@]2(C)[C@@H](C[C@@H](O)[C@H]3[C@@]4(C)CC[C@@H](O)[C@@H](C)[C@@H]4CC[C@@]32C)/C1=C(\CCC=C(C)C)C(=O)O [Fusidic acid] + C/C(=C\C(=O)OCCCCCCCCC(=O)O)C[C@@H]1OC[C@H](C[C@@H]2O[C@H]2[C@@H](C)[C@H](C)O)[C@@H](O)[C@H]1O [Pseudomonic acid] | 0.1 | 0.031 | 0.0339 | -0.0331 |
